pIC50: −log10 of the molar value.
Target: Lysine-specific histone demethylase 1A (Homo sapiens, UniProt O60341)
Description: Inhibition of recombinant full length LSD1 (unknown origin) transfected in Escherichia coli BL21 (DE) using H3K4me2 as substrate by flourescence based analysis

Row | pIC50 | SMILES
1 | < 4.30 | COCCOc1cc2ncnc(Sc3ccccn3)c2cc1OCCOC
2 | < 4.30 | COCCOc1cc2ncnc(Sc3ccc(Cl)cc3)c2cc1OCCOC
3 | < 4.30 | C#Cc1cccc(Nc2ncnc3cc(OCc4ccccc4)c(OC)cc23)c1
4 | < 4.30 | COCCOc1cc2ncnc(Nc3ccc4c(c3)OCO4)c2cc1OCCOC
5 | < 4.30 | COCCOc1cc2ncnc(N3CCN(C(C)=O)CC3)c2cc1OCCOC
6 | < 4.30 | COCCOc1cc2ncnc(N3CCN(c4ccccc4F)CC3)c2cc1OCCOC
7 | < 4.30 | C#Cc1cccc(Nc2ncnc3ccccc23)c1
8 | < 4.30 | COCCOc1cc2ncnc(Nc3ccccc3)c2cc1OCCOC
9 | < 4.30 | C#Cc1cccc(Nc2nc(-c3ccccc3)nc3ccccc23)c1

Reference: ChEMBL document CHEMBL4831513, “Discovery of quinazoline derivatives as a novel class of potent and in vivo efficacious LSD1 inhibitors by drug repurposing” (Eur J Med Chem, 2021)
